The values below come from ChEMBL document CHEMBL1201862, “PubChem BioAssay data set” (2004).

Among the test systems are A549; ACHN; COLO 205; HT-29; IGROV-1; K562; KM12; MOLT-4; Malme-3M; NCI-H23; OVCAR-3; SF-268; SK-MEL-28; SK-OV-3; SN12C; UACC-62; BT-549; MDA-MB-231; MDA-MB-435.
Common to all, as to assay: DTP human tumour cell line panel, 48 h

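Grown in 96-well plates, cells were treated for 48 hours with each compound at five concentrations. Insufficient inhibition: endpoint recorded as highest concentration tested. GI50: concentration for 50% inhibition of growth.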 Calls of active or inactive are those of the source. Rule as the data show it: active = GI50 up to about 1.1 µM and inactive = higher.

One may read the GI50 as the concentration giving 50% growth inhibition. In the case of `OCCSCC/C(=N\N=C(/CCSCCO)c1ccccc1)c1ccccc1`, the GI50 with A549 was > 100 µM (inactive); with ACHN it was 74.5 µM (inactive); in the assay with COLO 205 it was > 100 µM (inactive); with HT-29, 52 µM (inactive); with IGROV-1, > 100 µM (inactive); in the assay on K562 it was 29.9 µM (inactive). Also, the GI50 with KM12 is 66.8 µM (inactive); in the assay with MOLT-4, 77.4 µM (inactive); with Malme-3M, > 100 µM (inactive); in the assay on NCI-H23, > 100 µM (inactive); in the assay on OVCAR-3, > 100 µM (inactive); with SF-268 it was > 100 µM (inactive). The GI50 in the assay with SK-MEL-28, in the assay with SK-OV-3, in the assay with SN12C and in the assay with UACC-62 was > 100 µM (inactive) each time.

For `CCOC(=O)CCC(NC(=O)OCc1ccccc1)C(=O)NC(CCC(=O)OCC)C(=O)NC(CCC(=O)OCC)C(=O)NNC(=O)OC(C)(C)C` (stereo not given), the GI50 with A549, in the assay with ACHN, in the assay on BT-549, in the assay on COLO 205, in the assay with HT-29 and with IGROV-1 was > 100 µM (inactive) throughout. In addition, the GI50 in the assay with K562 was > 100 µM (inactive); in the assay on KM12 it was > 10 µM (inactive); in the assay on MDA-MB-231, > 100 µM (inactive); in the assay with MOLT-4 it was > 100 µM (inactive); in the assay on Malme-3M, > 100 µM (inactive); in the assay on NCI-H23, > 100 µM (inactive). In addition, the GI50 in the assay on SK-MEL-28, with SN12C and with UACC-62 was > 100 µM (inactive) in each case.

Take `C=CC1CN(C(=O)OCC)N(C(=O)OCC)C1CCc1ccccc1` (stereo not given): the GI50 with A549 is 57.8 µM (inactive); in the assay on ACHN it was > 100 µM (inactive); in the assay with COLO 205, 71.6 µM (inactive); with HT-29, > 100 µM (inactive); in the assay with IGROV-1, 81.8 µM (inactive); with K562 it was 50.8 µM (inactive). Further, the GI50 in the assay with KM12 is 71.6 µM (inactive); in the assay with MDA-MB-231, > 100 µM (inactive); in the assay on MDA-MB-435 it was > 100 µM (inactive); in the assay on MOLT-4 it was 31.2 µM (inactive); in the assay with Malme-3M, > 100 µM (inactive); in the assay on NCI-H23, 61.9 µM (inactive). For the same compound, the GI50 in the assay on SF-268, with SK-MEL-28, with SK-OV-3, in the assay with SN12C and with UACC-62 was > 100 µM (inactive) each time.

With `Cc1nc2c(-c3ccccc3)[nH]c(C)c2c(=O)o1`, the GI50 in the assay with A549 is 65.2 µM (inactive); in the assay with ACHN, 43.8 µM (inactive); in the assay on BT-549, 24.8 µM (inactive); in the assay with COLO 205, 58.3 µM (inactive); in the assay with HT-29 it was 39.4 µM (inactive); with IGROV-1 it was 80.5 µM (inactive). Moreover, the GI50 was 40.1 µM (inactive) in the assay on K562; > 100 µM (inactive) with KM12; 31.2 µM (inactive) in the assay on MDA-MB-231; 46.2 µM (inactive) with MDA-MB-435; 52.5 µM (inactive) in the assay on MOLT-4; 57.7 µM (inactive) in the assay on NCI-H23. The GI50 in the assay on SF-268 was 15.5 µM (inactive); with SK-MEL-28, > 100 µM (inactive); in the assay with SK-OV-3, 49.9 µM (inactive); in the assay with SN12C, > 100 µM (inactive); in the assay on UACC-62 it was 23.9 µM (inactive).

On to `Cc1cc(OC(=O)Nc2cccc3ccccc23)c(C(C)C)cc1C(=S)Nc1ccccc1`, for which the GI50 in the assay with A549 was 21.8 µM (inactive); with ACHN it was 24.2 µM (inactive); in the assay on BT-549, 12.1 µM (inactive); in the assay with COLO 205 it was 19.6 µM (inactive); in the assay with HT-29 it was 18.7 µM (inactive); in the assay on IGROV-1 it was 13.6 µM (inactive). Besides, the GI50 was 5.77 µM (inactive) with K562; 16.3 µM (inactive) in the assay with KM12; 18.1 µM (inactive) with MDA-MB-435; 11.4 µM (inactive) in the assay on MOLT-4; 17.3 µM (inactive) in the assay with Malme-3M; 15.7 µM (inactive) with NCI-H23. In addition, the GI50 in the assay with OVCAR-3 was 16.1 µM (inactive); in the assay with SF-268, 23.9 µM (inactive); in the assay with SK-MEL-28, 18 µM (inactive); in the assay with SK-OV-3, 10.4 µM (inactive); with UACC-62, 12.5 µM (inactive).

As to `CNC(=O)OCc1c(COC(=O)NC)c(C)n(-c2ccc(Br)cc2)c1C`, the GI50 with A549 was 16.9 µM (inactive); in the assay on ACHN, 3.26 µM (inactive); in the assay with COLO 205, 13.4 µM (inactive); with HT-29, 5.57 µM (inactive); in the assay on IGROV-1, 3.98 µM (inactive); in the assay on K562 it was 15.8 µM (inactive). Also, the GI50 is 14.4 µM (inactive) in the assay with KM12; 13.9 µM (inactive) with MDA-MB-231; 16.8 µM (inactive) in the assay on MDA-MB-435; 6.79 µM (inactive) with MOLT-4; 17.6 µM (inactive) in the assay with Malme-3M; 14.3 µM (inactive) with NCI-H23. In addition, the GI50 in the assay with OVCAR-3 was 14.6 µM (inactive); in the assay on SF-268 it was 10.7 µM (inactive); in the assay with SK-MEL-28 it was 16.4 µM (inactive); with SK-OV-3, 10.4 µM (inactive); in the assay on SN12C, 9.16 µM (inactive); in the assay with UACC-62 it was 4.89 µM (inactive).

In the case of `N=C(N)Cn1cnc2ccccc21`, the GI50 in the assay with A549, in the assay on ACHN, in the assay with COLO 205, in the assay on IGROV-1, with K562 and in the assay with KM12 was > 100 µM (inactive) each time. For the same compound, the GI50 with MOLT-4, in the assay with Malme-3M, in the assay with NCI-H23, in the assay with OVCAR-3, in the assay with SF-268 and in the assay with SK-MEL-28 was > 100 µM (inactive) throughout. Moreover, the GI50 in the assay with SK-OV-3, with SN12C and in the assay with UACC-62 was > 100 µM (inactive) throughout.

As for `C/C(=N\NC(=S)N1CCCCC1)c1cccc(C)n1`, the GI50 with A549 was 0.0325 µM (active); in the assay with ACHN, < 0.012 µM (active); with COLO 205 it was < 0.01 µM (active); in the assay on HT-29, < 0.01 µM (active); with IGROV-1 it was < 0.01 µM (active); in the assay with K562, < 0.01 µM (active). For the same compound, the GI50 was < 0.0221 µM (active) with KM12; < 0.01 µM (active) in the assay with MDA-MB-231; 0.0944 µM (active) in the assay on MDA-MB-435; < 0.01 µM (active) with MOLT-4; < 0.0197 µM (active) in the assay with Malme-3M; < 0.01 µM (active) in the assay with NCI-H23. In addition, the GI50 in the assay on OVCAR-3 is < 0.01 µM (active); in the assay on SF-268 it was < 0.0103 µM (active); in the assay on SK-MEL-28, 0.0968 µM (active); in the assay on SK-OV-3, < 0.0146 µM (active); in the assay on SN12C, 0.0108 µM (active); in the assay on UACC-62, 0.0318 µM (active).

On to `CCOC(=O)c1nc2cc(F)c(F)cc2nc1NCc1cc(OC)c(OC)c(OC)c1`, for which the GI50 in the assay on A549, with ACHN, in the assay with BT-549, in the assay with COLO 205, in the assay with HT-29 and in the assay with IGROV-1 was > 100 µM (inactive) in each case. The GI50 in the assay with KM12, with MDA-MB-435, with MOLT-4, in the assay with Malme-3M, in the assay on NCI-H23 and in the assay on OVCAR-3 was > 100 µM (inactive) throughout. Also, the GI50 with SF-268 was > 100 µM (inactive); in the assay with SK-MEL-28, > 100 µM (inactive); in the assay with SK-OV-3, > 100 µM (inactive); in the assay with SN12C, > 100 µM (inactive); in the assay on UACC-62, 67.1 µM (inactive).

Turning to `O=C1CC2CC(CC3(CO3)C2)C1F` (stereo not given), the GI50 in the assay with A549, with ACHN, with COLO 205, with HT-29, in the assay on IGROV-1 and in the assay with K562 was > 100 µM (inactive) throughout. Besides, the GI50 with KM12, with MDA-MB-231, with MDA-MB-435, with MOLT-4, with Malme-3M and in the assay on NCI-H23 was > 100 µM (inactive) in each case. In addition, the GI50 with SF-268, in the assay with SK-MEL-28, in the assay with SK-OV-3, in the assay on SN12C and with UACC-62 was > 100 µM (inactive) throughout.

As for `CC(Nc1ccc(Cl)cc1)c1ccncc1` (stereo not given), the GI50 in the assay on A549 is > 100 µM (inactive); in the assay with ACHN, > 100 µM (inactive); in the assay with BT-549, > 100 µM (inactive); in the assay with COLO 205 it was > 100 µM (inactive); in the assay on HT-29, 89.5 µM (inactive); in the assay on IGROV-1, 62.5 µM (inactive). Also, the GI50 with K562 was 75.3 µM (inactive); in the assay with KM12 it was 22.3 µM (inactive); in the assay with MDA-MB-435 it was > 100 µM (inactive); in the assay with MOLT-4, 64.3 µM (inactive); in the assay with Malme-3M it was > 100 µM (inactive); in the assay with NCI-H23, 56.8 µM (inactive). Further, the GI50 with OVCAR-3 was > 100 µM (inactive); in the assay with SF-268 it was 79.6 µM (inactive); with SK-MEL-28 it was > 100 µM (inactive); with SK-OV-3, 0.0315 µM (active); with SN12C, > 100 µM (inactive).

Consider `CCOC(=O)c1c(C)cc(=O)n2c1[nH]c1ccccc12`, for which the GI50 in the assay on A549 is 82.2 µM (inactive); in the assay with ACHN it was 42.5 µM (inactive); in the assay on BT-549, > 100 µM (inactive); in the assay on COLO 205 it was > 100 µM (inactive); in the assay on HT-29 it was > 100 µM (inactive); in the assay with IGROV-1, > 100 µM (inactive). The GI50 in the assay on K562 is 50.9 µM (inactive); with MDA-MB-231 it was 36.6 µM (inactive); in the assay on MOLT-4, > 100 µM (inactive); in the assay with Malme-3M, > 100 µM (inactive); with NCI-H23, > 100 µM (inactive); with OVCAR-3, > 100 µM (inactive). For the same compound, the GI50 in the assay on SK-MEL-28 was > 100 µM (inactive); in the assay with SK-OV-3 it was > 100 µM (inactive); in the assay on SN12C, 37.4 µM (inactive); with UACC-62, > 100 µM (inactive).
